Measurements reported in the NIST ThermoML archive (doi:10.1021/je049662k).
Numbers after ± are expanded uncertainties.

Details: Liquid; for mass density: isochoric method; for viscosity: Falling or rolling sphere viscometry

CCC(C)C(C)C (stereo not drawn) [2,3-dimethylpentane]
Details | mass density [kg/m3] | viscosity [mPa·s]
278.15 K, 100 kPa | 707.6 ± 0.4 | –
278.15 K, 1000 kPa | 708.3 ± 0.4 | –
278.15 K, 5000 kPa | 711.6 ± 0.4 | –
278.15 K, 10000 kPa | 715.5 ± 0.4 | –
278.15 K, 15000 kPa | 719.1 ± 0.4 | –
278.15 K, 20000 kPa | 722.7 ± 0.4 | –
278.15 K, 25000 kPa | 726 ± 0.4 | –
278.15 K, 30000 kPa | 729.2 ± 0.5 | –
278.15 K, 35000 kPa | 732.2 ± 0.5 | –
278.15 K, 40000 kPa | 735.2 ± 0.5 | –
278.15 K, 45000 kPa | 738 ± 0.5 | –
283.15 K, 100 kPa | 703.2 ± 0.4 | –
283.15 K, 1000 kPa | 704 ± 0.4 | –
283.15 K, 5000 kPa | 707.4 ± 0.4 | –
283.15 K, 10000 kPa | 711.5 ± 0.4 | –
283.15 K, 15000 kPa | 715.3 ± 0.4 | –
283.15 K, 20000 kPa | 718.9 ± 0.4 | –
283.15 K, 25000 kPa | 722.3 ± 0.4 | –
283.15 K, 30000 kPa | 725.6 ± 0.4 | –
283.15 K, 35000 kPa | 728.7 ± 0.5 | –
283.15 K, 40000 kPa | 731.7 ± 0.5 | –
283.15 K, 45000 kPa | 734.6 ± 0.5 | –
293.15 K, 100 kPa | 694.9 ± 0.4 | –
293.15 K, 1000 kPa | 695.7 ± 0.4 | –
293.15 K, 5000 kPa | 699.3 ± 0.4 | –
293.15 K, 10000 kPa | 703.6 ± 0.4 | –
293.15 K, 15000 kPa | 707.7 ± 0.4 | –
293.15 K, 20000 kPa | 711.5 ± 0.4 | –
293.15 K, 25000 kPa | 715.1 ± 0.4 | –
293.15 K, 30000 kPa | 718.6 ± 0.4 | –
293.15 K, 35000 kPa | 721.9 ± 0.4 | –
293.15 K, 40000 kPa | 725 ± 0.4 | –
293.15 K, 45000 kPa | 728 ± 0.5 | –
303.15 K, 100 kPa | 686.3 ± 0.4 | 0.356 ± 0.015
303.15 K, 1000 kPa | 687.2 ± 0.4 | 0.36 ± 0.015
303.15 K, 5000 kPa | 691.1 ± 0.4 | 0.377 ± 0.015
303.15 K, 10000 kPa | 695.7 ± 0.4 | 0.398 ± 0.016
303.15 K, 15000 kPa | 700 ± 0.4 | 0.419 ± 0.017
303.15 K, 20000 kPa | 704.1 ± 0.4 | 0.441 ± 0.018
303.15 K, 25000 kPa | 707.9 ± 0.4 | 0.462 ± 0.019
303.15 K, 30000 kPa | 711.6 ± 0.4 | 0.485 ± 0.02
303.15 K, 35000 kPa | 715 ± 0.4 | 0.507 ± 0.021
303.15 K, 40000 kPa | 718.3 ± 0.4 | 0.53 ± 0.022
303.15 K, 45000 kPa | 721.5 ± 0.4 | 0.553 ± 0.023
303.15 K, 50000 kPa | – | 0.576 ± 0.024
303.15 K, 55000 kPa | – | 0.6 ± 0.025
303.15 K, 60000 kPa | – | 0.624 ± 0.026
313.15 K, 100 kPa | 677.6 ± 0.4 | 0.324 ± 0.013
313.15 K, 1000 kPa | 678.6 ± 0.4 | 0.328 ± 0.013
313.15 K, 5000 kPa | 682.8 ± 0.4 | 0.343 ± 0.014
313.15 K, 10000 kPa | 687.7 ± 0.4 | 0.361 ± 0.015
313.15 K, 15000 kPa | 692.3 ± 0.4 | 0.38 ± 0.016
313.15 K, 20000 kPa | 696.6 ± 0.4 | 0.399 ± 0.016
313.15 K, 25000 kPa | 700.7 ± 0.4 | 0.418 ± 0.017
313.15 K, 30000 kPa | 704.5 ± 0.4 | 0.438 ± 0.018
313.15 K, 35000 kPa | 708.2 ± 0.4 | 0.458 ± 0.019
313.15 K, 40000 kPa | 711.6 ± 0.4 | 0.479 ± 0.02
313.15 K, 45000 kPa | 715 ± 0.4 | 0.5 ± 0.021
313.15 K, 50000 kPa | – | 0.522 ± 0.021
313.15 K, 55000 kPa | – | 0.544 ± 0.022
313.15 K, 60000 kPa | – | 0.566 ± 0.023
323.15 K, 100 kPa | 668.7 ± 0.4 | 0.29 ± 0.012
323.15 K, 1000 kPa | 669.8 ± 0.4 | 0.294 ± 0.012
323.15 K, 5000 kPa | 674.3 ± 0.4 | 0.308 ± 0.013
323.15 K, 10000 kPa | 679.6 ± 0.4 | 0.326 ± 0.013
323.15 K, 15000 kPa | 684.5 ± 0.4 | 0.344 ± 0.014
323.15 K, 20000 kPa | 689.1 ± 0.4 | 0.362 ± 0.015
323.15 K, 25000 kPa | 693.4 ± 0.4 | 0.381 ± 0.016
323.15 K, 30000 kPa | 697.5 ± 0.4 | 0.399 ± 0.016
323.15 K, 35000 kPa | 701.3 ± 0.4 | 0.418 ± 0.017
323.15 K, 40000 kPa | 705 ± 0.4 | 0.437 ± 0.018
323.15 K, 45000 kPa | 708.4 ± 0.4 | 0.457 ± 0.019
323.15 K, 50000 kPa | – | 0.476 ± 0.02
323.15 K, 55000 kPa | – | 0.496 ± 0.02
323.15 K, 60000 kPa | – | 0.517 ± 0.021
333.15 K, 100 kPa | 659.7 ± 0.4 | 0.262 ± 0.011
333.15 K, 1000 kPa | 660.9 ± 0.4 | 0.266 ± 0.011
333.15 K, 5000 kPa | 665.8 ± 0.4 | 0.28 ± 0.012
333.15 K, 10000 kPa | 671.5 ± 0.4 | 0.298 ± 0.012
333.15 K, 15000 kPa | 676.7 ± 0.4 | 0.316 ± 0.013
333.15 K, 20000 kPa | 681.6 ± 0.4 | 0.334 ± 0.014
333.15 K, 25000 kPa | 686.2 ± 0.4 | 0.352 ± 0.014
333.15 K, 30000 kPa | 690.5 ± 0.4 | 0.369 ± 0.015
333.15 K, 35000 kPa | 694.5 ± 0.4 | 0.387 ± 0.016
333.15 K, 40000 kPa | 698.3 ± 0.4 | 0.404 ± 0.017
333.15 K, 45000 kPa | 702 ± 0.4 | 0.422 ± 0.017
333.15 K, 50000 kPa | – | 0.439 ± 0.018
333.15 K, 55000 kPa | – | 0.457 ± 0.019
333.15 K, 60000 kPa | – | 0.474 ± 0.019
343.15 K, 100 kPa | 650.6 ± 0.4 | 0.244 ± 0.01
343.15 K, 1000 kPa | 651.9 ± 0.4 | 0.247 ± 0.01
343.15 K, 5000 kPa | 657.2 ± 0.4 | 0.26 ± 0.011
343.15 K, 10000 kPa | 663.3 ± 0.4 | 0.276 ± 0.011
343.15 K, 15000 kPa | 668.9 ± 0.4 | 0.292 ± 0.012
343.15 K, 20000 kPa | 674.1 ± 0.4 | 0.309 ± 0.013
343.15 K, 25000 kPa | 678.9 ± 0.4 | 0.325 ± 0.013
343.15 K, 30000 kPa | 683.5 ± 0.4 | 0.342 ± 0.014
343.15 K, 35000 kPa | 687.7 ± 0.4 | 0.359 ± 0.015
343.15 K, 40000 kPa | 691.7 ± 0.4 | 0.376 ± 0.015
343.15 K, 45000 kPa | 695.5 ± 0.4 | 0.393 ± 0.016
343.15 K, 50000 kPa | – | 0.41 ± 0.017
343.15 K, 55000 kPa | – | 0.428 ± 0.018
343.15 K, 60000 kPa | – | 0.445 ± 0.018
353.15 K, 100 kPa | 641.3 ± 0.4 | 0.232 ± 0.01
353.15 K, 1000 kPa | 642.7 ± 0.4 | 0.234 ± 0.01
353.15 K, 5000 kPa | 648.5 ± 0.4 | 0.246 ± 0.01
353.15 K, 10000 kPa | 655.1 ± 0.4 | 0.261 ± 0.011
353.15 K, 15000 kPa | 661.1 ± 0.4 | 0.276 ± 0.011
353.15 K, 20000 kPa | 666.6 ± 0.4 | 0.291 ± 0.012
353.15 K, 25000 kPa | 671.7 ± 0.4 | 0.306 ± 0.013
353.15 K, 30000 kPa | 676.5 ± 0.4 | 0.321 ± 0.013
353.15 K, 35000 kPa | 680.9 ± 0.4 | 0.336 ± 0.014
353.15 K, 40000 kPa | 685.1 ± 0.4 | 0.35 ± 0.014
353.15 K, 45000 kPa | 689.1 ± 0.4 | 0.365 ± 0.015
353.15 K, 50000 kPa | – | 0.381 ± 0.016
353.15 K, 55000 kPa | – | 0.395 ± 0.016
353.15 K, 60000 kPa | – | 0.411 ± 0.017
